{"source": "patent US20260076952A1", "about": "“Agent for Treatment of Neutropenia” (Eberhard Karls Universität Tübingen Medizinische Fakultät, priority 2023, published 2026)", "key": {"[1]": {"tested_on": "primary bone marrow CD34+ HSPCs of ELANE-CN, HAX1-CN, JAGN1-CN and SRP54-CN patients", "assay": "Granulocytic liquid culture differentiation (LCD) of CN patient CD34+ HSPCs", "format": "cell-based, human", "conditions": "all CN patients", "experimental": "(§1) CD34+ cells were seeded in a 24-well plate at a density of 2×10^5 cells/ml. […] Medium was exchanged every second day. On day 7, cells were plated in RPMI 1640 GlutaMAX supplemented with 10% FBS, 1% penicillin/streptomycin and 10 ng/ml G-CSF. On day 14, cells were analyzed by flow cytometry using following mouse anti-human antibodies: CD34 (BD, #348811), CD33 (BioLegend, #303416), CD45 (BioLegend, #304036), CD11b (BD, #557754), CD15 (BD, #555402), CD66b (BioLegend, #305114), CD16 (BD, #561248)."}, "HSPCs (CD41: gfp+ cells)": {"tested_on": "HSPCs (CD41: gfp+ cells)", "assay": "Zebrafish in vivo model, number of HSPCs in tg(CD41:gfp) embryos", "conditions": "up to 10 µM, two days, compared to DMSO-treated controls", "experimental": "(§2) Zebrafish transgenic lines and wild type were maintained according to standard protocols and handled in accordance with European Union animal protection directive 2010/63/EU. The maintenance was approved by the local government (Tierschutzgesetz § 11, Abs. 1, Nr. 1, husbandry permit 35/9185.46/Uni TÜ). All the experiments were performed in zebrafish embryos under 5 days post fertilization. In this study the inventors used two transgenic (tg) reporter lines, tg(mpo: gfp), where neutrophils express gfp and tg(CD41:gfp),where HSPCs express gfp, both described in the art.\n(§3) To generate the jagn1b and hax1 mutants two different approaches were used, CRISPR/Cas9-mediated knock-out and morpholino-based knock down, respectively. On the one hand, to interfere with the function of jagn1b, jagn1b-targeting sgRNA and Cas9 protein RNPs (Alt-R S.p. Cas9 nuclease, v.3, IDT) were injected into the blastomere of 1-cell stage tg (mpo: gfp) embryos, as described in the art. On the other hand, to interfere with hax1 function 1 mM hax1-specific morpholino (GeneTool) was injected into 1-cell stage tg (mpo: gfp) embryos as previously described in the art. […] After two days of treatment, the number of mpo:gfp^+ or CD41:gfp^+ cells where quantified using a Nikon stereo-fluorescent SMZ18 microscope."}, "[2]": {"tested_on": "jagn1b knock-out zebrafish mutant embryos", "assay": "Zebrafish jagn1b knock-out neutropenia model, number of neutrophils", "format": "in vivo", "conditions": "two days treatment", "experimental": "as §2, §3"}, "[3]": {"tested_on": "CD34+ HSPCs of healthy donors", "assay": "Annexin V apoptosis assay on CD34+ HSPCs", "format": "cell-based, human", "conditions": "40 nM, 48 hours"}, "[4]": {"conditions": "prior-art clinical trials, used to inhibit CDKs and induce apoptosis in leukemia cells (Gerson et al. 2018); cited from earlier work"}, "ELANE-CN iPSCs": {"tested_on": "ELANE-CN iPSCs", "assay": "Colony-forming unit (CFU) assay of CD34+ cells from EB-based CN-iPSC culture", "format": "cell-based, human", "method": "Colony-forming unit (CFU) assay of CD34^+ cells harvested from EB-based CN-iPSC culture on day 14 of differentiation treated with eleven short listed small molecules.\nEB-Based Hematopoietic Differentiation of iPSCs iPSCs were cultured on SNL feeder cells for 24 hours and then dissociated using PBS/EDTA (0.02%) for 5 min. EB generation was performed by centrifugation of 2×10^4 cells per EB in 96-well plates using APEL serum-free differentiation medium (Stemcell Technologies) supplemented with bFGF (20 ng/μl) and ROCK Inhibitor (R&D). On day one, BMP4 (40 ng/μl) was added to the culture medium to induce mesodermal differentiation. On day four, EBs were plated on Matrigel-coated 6-well plates (10 EBs/well) in APEL medium supplemented with VEGF (40 ng/μl), SCF (50 ng/μl) and IL-3 (50 ng/μl). For neutrophilic differentiation, the medium was changed 3 days later to fresh APEL medium supplemented with IL3 (50 ng/μl) and G-CSF (50 ng/μl). All cytokines were purchased from R&D Systems if nothing else is indicated. First hematopoietic suspension cells appeared between day 10 and 14. Suspension cells were harvested every 3-4 days and analyzed starting from day 14 to day 32.\nThe inventors then selected eleven small molecules that could potentially mimic the differentially expressed genes (DEGs) signature between CN and CN-corrected HSPCs and screened the effect of these small molecules on granulopoiesis using their isogenic CN iPSC model."}, "[5]": {"tested_on": "in vitro generated neutrophils", "assay": "Annexin V apoptosis assay on in vitro generated neutrophils", "format": "cell-based, human", "conditions": "day 13 of LCD, four healthy donors"}, "[6]": {"tested_on": "CD34+ HSPCs of healthy donors", "assay": "RealTime-Glo MT Cell Viability Assay on CD34+ HSPCs", "format": "cell-based, human", "conditions": "40 nM, 48 hours, versus DMSO-treated group"}, "[7]": {"tested_on": "human primary neutrophils of healthy donor", "assay": "RealTime-Glo MT Cell Viability Assay on human primary neutrophils", "format": "cell-based", "conditions": "40 nM, compared with 0.1% DMSO", "source_text": "The assay measures the reducing potential of viable cells in an ATP-independent manner and the nonlytic nature, high sensitivity and rapid response of the assay make it possible to track the cell viability over time in the same plate. Ficoll-Paque density gradient media (density: 1.077 g/mL) used for isolation of peripheral blood polymononuclear cell (PBPMNs) 1 of healthy donors."}, "[8]": {"tested_on": "in vitro generated neutrophils", "assay": "Chemotaxis assay of in vitro generated neutrophils", "format": "cell-based, human", "conditions": "differentiated in the presence of 40 nM flavopiridol"}, "[9]": {"tested_on": "primary bone marrow CD34+ HSPCs of healthy donors", "assay": "CFU assay of primary bone marrow CD34+ HSPCs of healthy donors", "format": "cell-based, human", "conditions": "40 nM, compared to DMSO control", "source_text": "FIG. 3A. […] Data represent means±SD from two independent experiments. **P<0.01."}, "[10]": {"tested_on": "in vitro generated neutrophils", "assay": "Reactive oxygen species (ROS) assay of in vitro generated neutrophils", "format": "cell-based, human", "conditions": "differentiated in the presence of 40 nM flavopiridol"}, "[11]": {"tested_on": "in vitro generated neutrophils", "assay": "RealTime-Glo MT cell viability assay on in vitro generated neutrophils", "format": "cell-based, human", "conditions": "day 13 of LCD, four healthy donors"}, "[12]": {"tested_on": "primary bone marrow CD34+ HSPCs of healthy donors", "assay": "Granulocytic liquid culture differentiation (LCD) of healthy donor CD34+ HSPCs", "format": "cell-based, human", "conditions": "for neutrophil count, morphological examination of cytospin preparations: day 14", "experimental": "as §1"}, "[13]": {"tested_on": "hax1-knock-down zebrafish mutant embryos (hax1 MO)", "assay": "Zebrafish hax1 knock-down neutropenia model, number of neutrophils", "format": "in vivo", "conditions": "two days treatment", "experimental": "as §2, §3"}, "[14]": {"tested_on": "primary bone marrow CD34+ HSPCs of ELANE-CN, HAX1-CN, JAGN1-CN and SRP54-CN patients", "assay": "CFU assay of primary bone marrow CD34+ HSPCs of CN patients", "format": "cell-based, human", "conditions": "two ELANE-CN, one HAX1-CN, one SRP54-CN patient, 40 nM", "source_text": "FIG. 4A. […] Data represent means±SD from two independent experiments. *P<0.05, **P<0.01."}, "[15]": {"tested_on": "in vitro generated neutrophils", "assay": "Phagocytosis assay of in vitro generated neutrophils", "format": "cell-based, human", "conditions": "differentiated in the presence of 40 nM flavopiridol"}, "[16]": {"conditions": "three independent ELANE-CN derived iPSCs, 40 nM flavopiridol"}}, "note": "“Also recorded” adds a separate entry of the source.", "data": [{"smiles": "CN1CC[C@H](c2c(O)cc(O)c3c(=O)cc(-c4ccccc4Cl)oc23)[C@H](O)C1", "note": "[flavopiridol]", "values": [{"measurement": "granulopoiesis: numbers of granulocytes and mature neutrophils by flow cytometry", "setting": "[1]; 40 nM, 14 days", "value": "significant restoration of granulopoiesis"}, {"measurement": "granulopoiesis, morphological examination of cytospin preparations", "setting": "[1]; day 14", "value": "significant restoration or restoration trend of granulopoiesis"}, {"measurement": "total number of HSPCs (CD41: gfp+ cells)", "setting": "HSPCs (CD41: gfp+ cells)", "value": "did not affect"}, {"measurement": "number of neutrophils (mpo: gfp+ cells)", "setting": "[2]", "value": "significantly restored the number of neutrophils (mpo: gfp^+ cells) to a similar level to wildtype controls; also recorded: restored the number of neutrophils (mpo: gfp^+ cells) to a similar level than the wildtype controls"}, {"measurement": "apoptosis in CD34+ HSPCs", "setting": "[3]", "value": "did not induce apoptosis"}, {"measurement": "steady-state blood plasma levels", "setting": "[4]", "value": "about 350 nM"}, {"measurement": "granulopoiesis in CN iPSCs (screening)", "setting": "ELANE-CN iPSCs; screen of eleven small molecules in isogenic CN iPSC model", "value": "markedly restored the granulopoiesis"}, {"measurement": "CFU-macrophages (CFU-Ms)", "setting": "ELANE-CN iPSCs; [16]", "value": "significant decrease"}, {"measurement": "colony-forming unit-granulocytes (CFU-G)", "setting": "ELANE-CN iPSCs; [16]", "value": "significant increase"}, {"measurement": "early apoptotic cells", "setting": "[5]", "value": "about 3%"}, {"measurement": "late apoptotic cells", "setting": "[5]", "value": "less than 2%"}, {"measurement": "live cells", "setting": "[5]", "value": "More than 95%"}, {"measurement": "viability of CD34+ HSPCs", "setting": "[6]", "value": "comparable to that of the DMSO-treated group"}, {"measurement": "viability of neutrophils", "setting": "[7]; 3 hours", "value": "No significant difference"}, {"measurement": "viability of neutrophils", "setting": "[7]; 24 hours", "value": "No significant difference"}, {"measurement": "viability of neutrophils", "setting": "[7]; 48 hours", "value": "No significant difference"}, {"measurement": "neutrophil function, chemotaxis", "setting": "[8]", "value": "did not affect neutrophil function"}, {"measurement": "levels of CFU-G", "setting": "[9]; healthy donor one (HD1)", "value": "significantly elevated levels of CFU-G"}, {"measurement": "levels of CFU-G", "setting": "[9]; healthy donor two (HD2)", "value": "no significant change"}, {"measurement": "neutrophil function, reactive oxygen species (ROS)", "setting": "[10]", "value": "did not affect neutrophil function"}, {"measurement": "levels of viability upon differentiation", "setting": "[11]", "value": "improved levels of viability"}, {"measurement": "granulopoiesis: numbers of granulocytes (CD45+CD15+CD11b+, CD45+CD15+CD66b+) and mature neutrophils (CD45+CD15+CD16+)", "setting": "[12]; both healthy donors, 40 nM, 14 days, flow cytometry", "value": "significantly enhanced granulopoiesis"}, {"measurement": "neutrophil count, morphological examination of cytospin preparations", "setting": "[12]; healthy donor one (HD1)", "value": "no change"}, {"measurement": "neutrophil count, morphological examination of cytospin preparations", "setting": "[12]; healthy donor two (HD 2)", "value": "a significant increase in neutrophil count"}, {"measurement": "number of neutrophils (mpo: gfp+ cells)", "setting": "[13]", "value": "significantly restored the number of neutrophils (mpo: gfp^+ cells) to a similar level to wildtype controls; also recorded: increased to a similar level than the wildtype controls"}, {"measurement": "levels of CFU-G", "setting": "[14]", "value": "significantly elevated levels of CFU-G in all CN groups"}, {"measurement": "neutrophil function, phagocytosis", "setting": "[15]", "value": "did not affect neutrophil function"}]}]}
